# According to patent publication US10653139B2 (priority 2015, dated 2020):
# Assays:
# Acanthoscelides obtectus = assay: Insecticidal activity test, vapour phase, bean; format: in vivo; settings: 7.5 μL/mL
# Fusarium culmorum [1] = assay: Antifungal in vitro assay, direct plating; format: cell-based; settings: observed over 25 weeks
# Description: (§1) The screening of S. aromaticum and M. pulegium essential oils and their major components, eugenol and pulegone, respectively, was carried out using a direct plating technique in order to evaluate their ability to inhibit the growth of Aspergillus candidus, A. niger, Penicillium islandicum and Fusarium culmorum.
# (§2) In vitro assays. For the determination of direct plating effect of essential oil on the growth of the fungi on different concentrations 0.5, 1.0, 2.5 and 5.0 μL/mL of essential oil were put on the surface of a Petri dish with 20 mL of potato dextrose agar medium (PDA). These Petri dishes were inoculated with a 5 mm diameter disk of fungi grown on PDA medium for 8 days at 28° C. This disk was placed on the agar surface and the dish sealed immediately with parafilm to prevent loss of essential oil to the atmosphere and incubated at 28° C. Inhibition concentrations of essential oil were determined by periodic evaluation of fungi growth during 25 weeks. For each concentration, four replicate dishes were used.
# Aspergillus candidus [2] = assay: Antifungal in vitro assay, direct plating; format: cell-based; settings: observed over 25 weeks
# Description: as §1, §2
# Penicillium islandicum [3] = assay: Antifungal in vitro assay, direct plating; format: cell-based; settings: observed over 25 weeks
# Description: as §1, §2
# Aspergillus niger [4] = assay: Antifungal in vitro assay, direct plating; format: cell-based; settings: observed over 25 weeks
# Description: as §1, §2
# [5] = test system: fungi growth on dried grains; assay: Antifungal in vivo test on dried grains, vapour phase; settings: dried grains on PDA, 25 weeks
# Description: 1.2 In vivo tests. The efficacy screening of the vapour of clove and pennyroyal essential oils (OE) and their main active components (MAC) eugenol, pulegone or their mixture was, carried out using a modified technique describe in Bluma, R., Landa, M. F., Etcheverry, M., 2009. Impact of volatile compounds generated by essential oils on Aspergillus section Flavi growth parameters and aflatoxin accumulation. J. Sci. Food Agric. 89 (9), 1473-1480. For the determination of volatile phase effect of essential oil on fungi growth different concentrations of essential oil were added to sterile filter papers (10 mm diameter, Whatman No. 1), namely, 0.5 μL/mL, 1.0 μL/mL, 2.5 μL/mL and 5.0 μL/mL and placed adherent to the inner surface of each Petri dishes lid (90 mm).
# The grains were disinfected at surface as describe by Pitt & Hocking (Pitt, J. I., Hocking, A. D., 2009. Fungi and food spoilage. Springer, New York).
# Ten dried grains were placed on Petri dishes with 20 mL of PDA medium with chloramphenicol (1%). These dishes were sealed immediately with parafilm and incubated at 28° C. Inhibition concentrations of volatile phase of essential oils were determined by periodic observation of fungi growth over 25 weeks. Control with no treated grains was also performed. For each concentration ten replicates were done.
# Fusarium culmorum [6] = assay: Antifungal in vitro assay, volatile (vapour) phase; format: cell-based; settings: observed over 25 weeks
# Description: (§3) Petri dishes were inoculated with a 5 mm diameter disk of fungi grown on PDA medium for 8 days at 28° C. This disk was placed on the agar surface and the dish sealed immediately with parafilm and incubated at 28° C. Inhibition concentrations of volatile phase of essential oils were determined by a periodic evaluation the fungi growth over 25 weeks. In the control, equal amounts of sterilized water was added to filter papers and placed onto the lid of Petri dishes. For each concentration, four replicate Petri dishes were used. The absence of growth was recorded during 25 weeks.
# Aspergillus candidus [7] = assay: Antifungal in vitro assay, volatile (vapour) phase; format: cell-based; settings: observed over 25 weeks
# Description: as §3
# Penicillium islandicum [8] = assay: Antifungal in vitro assay, volatile (vapour) phase; format: cell-based; settings: observed over 25 weeks
# Description: as §3
# Aspergillus niger [9] = assay: Antifungal in vitro assay, volatile (vapour) phase; format: cell-based; settings: observed over 25 weeks
# Description: as §3
# grain maize germination = assay: In vitro germination assay of treated seeds; settings: 3.5 months treatments, in vitro after 4 days (FIG. 2A)
# Description: (§4) FIG. 2—Represents the effect of 3.5 months treatments on grain maize germination: (A) in vitro after 4 days and (B) in vivo 17 days after sowing (DAS).
# In an embodiment, for the in vitro germination assay were used 10 seeds and 5 ml of sterile water per petri dish and the incubation temperature was ±25° C.
# [10] = test system: plants produced from treated seeds; assay: In vivo effects on plants from treated seeds (pots in greenhouse); design: species or system maize
# Description: as §4
# In an embodiment, the assay was performed in pots in a greenhouse with environmental monitoring (temperature, humidity and PAR intensity) and controlled irrigation. For each treatment, 6 pots with 2 plants each were used. […] No relevant differences in phenotypic (germination, chlorophyll and height) and physiological parameters (photosynthesis, stomatal conductance and transpiration (FIG. 3) were found.
# Sitophilus zeamais = assay: Insecticidal activity test, vapour phase, maize; format: in vivo; settings: 18.8 μL/mL
# Description: Maize grain with an average moisture content of 14±0.5% and ten unsexed adult insects aged from 1 to 4 days were used. The stock cultures of insects and the biological tests were carried out in a single incubator at 27° C. and 75±5% relative humidity.
# Control with non-treated samples was also performed. Ten replicates per treatment and control were set up. All the replicates were kept in an incubator at 27° C. and 75%±5% relative humidity.
# The progeny (F1) was evaluated monthly by common procedures after removing the parent adults. Insect mortality was assessed during five months (0.25, 1, 8, 134 and 149 days). The development index and the life cycle were also evaluated.
# [11] = Container atmosphere composition (GC-PID); format: physicochemical; settings: after 20 days of storage, one or two devices, 24 ml pulegone, 65 L container, maintained 4/5 months
# Description: To study the evolution of the spatial and temporal pulegone concentration, two containers with 1 and 2 release devices were used, similar to those described in 4.1. In each container, 24 ml of pulegone were impregnated in cotton.
# The spatial concentration profiles along time were outlined by collecting over time samples of 500 μL from the container atmosphere, through the 6 sampling ports (detailed presentation in FIG. 1) using a 500 μL gas-tight Hamilton syringe.
# Nitrogen was used as carrier gas at a constant 2 mL flow rate.
compound,measurement,setting,value
"C=CCc1ccc(O)c(OC)c1 [Eugenol, eugenol]",Insect Mortality (%),Acanthoscelides obtectus; 0.25 days,0%
same,Insect Mortality (%),Acanthoscelides obtectus; 1 day (control 29),70%
same,Insect Mortality (%),Acanthoscelides obtectus; 8 days (control 100),100%
same,Insect Mortality (%),Acanthoscelides obtectus; 134 days (control 100),100%
same,Insect Mortality (%),Acanthoscelides obtectus; 149 days (control 100),100%
same,"Time (weeks), period of storage without any fungal contamination",Fusarium culmorum [1]; 0.5 μL/mL,25 weeks
same,"Time (weeks), period of storage without any fungal contamination",Fusarium culmorum [1]; 1.0 μL/mL,25 weeks
same,"Time (weeks), period of storage without any fungal contamination",Fusarium culmorum [1]; 2.5 μL/mL,25 weeks
same,"Time (weeks), period of storage without any fungal contamination",Fusarium culmorum [1]; 5.0 μL/mL,25 weeks
same,"Time (weeks), period of storage without any fungal contamination",Aspergillus candidus [2]; 0.5 μL/mL,25 weeks
same,"Time (weeks), period of storage without any fungal contamination",Aspergillus candidus [2]; 1.0 μL/mL,25 weeks
same,"Time (weeks), period of storage without any fungal contamination",Aspergillus candidus [2]; 2.5 μL/mL,25 weeks
same,"Time (weeks), period of storage without any fungal contamination",Aspergillus candidus [2]; 5.0 μL/mL,25 weeks
same,"Time (weeks), period of storage without any fungal contamination",Penicillium islandicum [3]; 0.5 μL/mL,25 weeks
same,"Time (weeks), period of storage without any fungal contamination",Penicillium islandicum [3]; 1.0 μL/mL,25 weeks
same,"Time (weeks), period of storage without any fungal contamination",Penicillium islandicum [3]; 2.5 μL/mL,25 weeks
same,"Time (weeks), period of storage without any fungal contamination",Penicillium islandicum [3]; 5.0 μL/mL,25 weeks
same,"Time (weeks), period of storage without any fungal contamination",Aspergillus niger [4]; 0.5 μL/mL,25 weeks
same,"Time (weeks), period of storage without any fungal contamination",Aspergillus niger [4]; 1.0 μL/mL,25 weeks
same,"Time (weeks), period of storage without any fungal contamination",Aspergillus niger [4]; 2.5 μL/mL,25 weeks
same,"Time (weeks), period of storage without any fungal contamination",Aspergillus niger [4]; 5.0 μL/mL,25 weeks
same,"Time (weeks), period of storage without any fungal contamination, in vivo",[5]; 0.5 μL/mL,2 weeks
same,"Time (weeks), period of storage without any fungal contamination, in vivo",[5]; 2.5 μL/mL,25 weeks
same,"Time (weeks), period of storage without any fungal contamination, in vivo",[5]; 5.0 μL/mL,25 weeks
same,"Time (weeks), period of storage without any fungal contamination",Fusarium culmorum [6]; 0.5 μL/mL,25 weeks
same,"Time (weeks), period of storage without any fungal contamination",Fusarium culmorum [6]; 1.0 μL/mL,25 weeks
same,"Time (weeks), period of storage without any fungal contamination",Fusarium culmorum [6]; 2.5 μL/mL,25 weeks
same,"Time (weeks), period of storage without any fungal contamination",Fusarium culmorum [6]; 5.0 μL/mL,25 weeks
same,"Time (weeks), period of storage without any fungal contamination",Aspergillus candidus [7]; 0.5 μL/mL,21 weeks
same,"Time (weeks), period of storage without any fungal contamination",Aspergillus candidus [7]; 1.0 μL/mL,25 weeks
same,"Time (weeks), period of storage without any fungal contamination",Aspergillus candidus [7]; 2.5 μL/mL,25 weeks
same,"Time (weeks), period of storage without any fungal contamination",Aspergillus candidus [7]; 5.0 μL/mL,25 weeks
same,"Time (weeks), period of storage without any fungal contamination",Penicillium islandicum [8]; 0.5 μL/mL,25 weeks
same,"Time (weeks), period of storage without any fungal contamination",Penicillium islandicum [8]; 1.0 μL/mL,25 weeks
same,"Time (weeks), period of storage without any fungal contamination",Penicillium islandicum [8]; 2.5 μL/mL,25 weeks
same,"Time (weeks), period of storage without any fungal contamination",Penicillium islandicum [8]; 5.0 μL/mL,25 weeks
same,"Time (weeks), period of storage without any fungal contamination",Aspergillus niger [9]; 0.5 μL/mL,23 weeks
same,"Time (weeks), period of storage without any fungal contamination",Aspergillus niger [9]; 1.0 μL/mL,25 weeks
same,"Time (weeks), period of storage without any fungal contamination",Aspergillus niger [9]; 2.5 μL/mL,25 weeks
same,"Time (weeks), period of storage without any fungal contamination",Aspergillus niger [9]; 5.0 μL/mL,25 weeks
"C=C(C)[C@H]1CC=C(C)CC1 [Limonene, reference compound]",Insect Mortality (%),Acanthoscelides obtectus; 0.25 days,0%
same,Insect Mortality (%),Acanthoscelides obtectus; 1 day (control 29),100%
same,Insect Mortality (%),Acanthoscelides obtectus; 8 days (control 100),100%
same,Insect Mortality (%),Acanthoscelides obtectus; 134 days (control 100),100%
same,Insect Mortality (%),Acanthoscelides obtectus; 149 days (control 100),100%
same,"seed germination capacity, in vitro",grain maize germination,significant decrease
same,height of plants relatively to the control,[10]; plants from treated seeds (FIG. 4A),small variation
same,decrease in total chlorophyll content related to the control,[10]; plants obtained from treated grains,1.9%
same,"germination, in vivo","[10]; pots in greenhouse, figure printed in brackets after 'really affected the germination'",49.1%
"CC(C)=C1CC[C@@H](C)CC1=O [Pulegone, pulegone]",Insect Mortality (%),Sitophilus zeamais; 0.25 days,46%
same,Insect Mortality (%),Sitophilus zeamais; 1 day,100%
same,Insect Mortality (%),Sitophilus zeamais; 8 days,100%
same,Insect Mortality (%),Sitophilus zeamais; 134 days,100%
same,Insect Mortality (%),Sitophilus zeamais; 149 days,100%
same,Insect Mortality (%),Acanthoscelides obtectus; 0.25 days,0%
same,Insect Mortality (%),Acanthoscelides obtectus; 1 day (control 29),100%
same,Insect Mortality (%),Acanthoscelides obtectus; 8 days (control 100),100%
same,Insect Mortality (%),Acanthoscelides obtectus; 134 days (control 100),100%
same,Insect Mortality (%),Acanthoscelides obtectus; 149 days (control 100),100%
same,stabilized concentration level in the container atmosphere,[11],10 % of the standard pulegone saturation value
same,"Time (weeks), period of storage without any fungal contamination, in vivo",[5]; 0.5 μL/mL,2 weeks
same,"Time (weeks), period of storage without any fungal contamination, in vivo",[5]; 2.5 μL/mL,20 weeks
same,"Time (weeks), period of storage without any fungal contamination, in vivo",[5]; 5.0 μL/mL,25 weeks
